# Measured values: PubChem BioAssay AID248 (DTP/NCI, 2004)
# “And” between values parts separate entries of the source, which are not always exact repeats. Equal entries are not always repeated. Toxic doses and inconclusive results are not listed. Peptide text beside a SMILES is read from it. * marks the point of attachment. Cbz = O=C(OCc1ccccc1)*; OBn = c1ccc(CO*)cc1; Bn = c1ccc(C*)cc1
# System: L1210 leukemia ip in BDF1 mice, survival T/C
# Test: NCI In Vivo Anticancer Drug Screen. Data for tumor model L1210 Leukemia (intraperitoneal) in B6D2F1 (BDF1) mice
# Conditions: endpoint: mean survival time, higher = longer survival
# Method in brief: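 Transplanted-tumor mice were given test agent; controls received vehicle only. Survival readings from the two groups were divided (treated over control).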
# [1] = dose: 50.0 mg/kg/injection, schedule: Q01DX001 (ip), vehicle: carboxymethylcellulose (CMC)
# [2] = dose: 100.0 mg/kg/injection, schedule: Q01DX001 (ip), vehicle: carboxymethylcellulose (CMC)
# [3] = dose: 200.0 mg/kg/injection, schedule: Q01DX001 (ip), vehicle: carboxymethylcellulose (CMC)
# [4] = dose: 400.0 mg/kg/injection, schedule: Q01DX001 (ip), vehicle: carboxymethylcellulose (CMC)
# [5] = dose: 100.0 mg/kg/injection, schedule: Q04DX002 (ip), vehicle: saline
# [6] = dose: 200.0 mg/kg/injection, schedule: Q04DX002 (ip), vehicle: saline
# [7] = dose: 400.0 mg/kg/injection, schedule: Q04DX002 (ip), vehicle: saline
# [8] = dose: 100.0 mg/kg/injection, schedule: Q04DX003 (ip), vehicle: saline with Tween-80
# [9] = dose: 200.0 mg/kg/injection, schedule: Q04DX003 (ip), vehicle: saline with Tween-80
# [10] = dose: 200.0 mg/kg/injection, schedule: Q01DX009 (ip), vehicle: saline
# [11] = dose: 50.0 mg/kg/injection, schedule: Q01DX001 (ip), vehicle: saline
# [12] = dose: 100.0 mg/kg/injection, schedule: Q01DX001 (ip), vehicle: saline
# [13] = dose: 100.0 mg/kg/injection, schedule: Q01DX009 (ip), vehicle: saline
# [14] = dose: 400.0 mg/kg/injection, schedule: Q01DX009 (ip), vehicle: saline
smiles,measurement,setting,value
O=CC(OC(=O)c1ccccc1)C(OC(=O)c1ccccc1)C(COC(c1ccccc1)(c1ccccc1)c1ccccc1)OC(=O)c1ccccc1 (centres undefined),T/C,[1],97 % of control
same,T/C,[2],103 % of control
same,T/C,[3],103 % of control
same,T/C,[4],91 % of control
CS/C(=C\C(=O)c1ccccc1)C(=O)O,T/C,[5],110 % of control
same,T/C,[6],100 % of control
same,T/C,[7],100 % of control
CC(C)c1ccccc1OS(=O)(=O)c1ccccc1,T/C,[8],91 % of control
same,T/C,[9],95 % of control
same,T/C,"dose: 400.0 mg/kg/injection, schedule: Q04DX003 (ip), vehicle: saline with Tween-80",98 % of control
OCCN(CCO)c1cc(OCc2ccccc2)cc(OCc2ccccc2)c1,T/C,"dose: 25.0 mg/kg/injection, schedule: Q01DX009 (ip), vehicle: water",94 % of control
same,T/C,"dose: 50.0 mg/kg/injection, schedule: Q01DX009 (ip), vehicle: water",97 % of control
same,T/C,"dose: 100.0 mg/kg/injection, schedule: Q01DX009 (ip), vehicle: water",101 % of control
same,T/C,"dose: 200.0 mg/kg/injection, schedule: Q01DX009 (ip), vehicle: water",86 % of control
same,T/C,"dose: 400.0 mg/kg/injection, schedule: Q01DX009 (ip), vehicle: water",95 % of control
O=C(Nc1ccccc1[N+](=O)[O-])C(=O)Nc1ccccc1[N+](=O)[O-],T/C,"dose: 50.0 mg/kg/injection, schedule: Q01DX009 (ip), vehicle: saline with Tween-80",91 % of control
same,T/C,"dose: 100.0 mg/kg/injection, schedule: Q01DX009 (ip), vehicle: saline with Tween-80",86 % of control
same,T/C,[8],95 % of control
same,T/C,"dose: 200.0 mg/kg/injection, schedule: Q01DX009 (ip), vehicle: saline with Tween-80",94 % of control
same,T/C,[9],93 % of control
NC(N)=N/N=C\c1ccc(O)c(O)c1,T/C,"dose: 15.0 mg/kg/injection, schedule: Q01DX Z (ip), vehicle: carboxymethylcellulose (CMC)",97 % of control
same,T/C,"dose: 30.0 mg/kg/injection, schedule: Q01DX Z (ip), vehicle: carboxymethylcellulose (CMC)",97 % of control
same,T/C,"dose: 60.0 mg/kg/injection, schedule: Q01DX Z (ip), vehicle: carboxymethylcellulose (CMC)",113 % of control
same,T/C,"dose: 120.0 mg/kg/injection, schedule: Q01DX Z (ip), vehicle: carboxymethylcellulose (CMC)",116 % of control
same,T/C,"dose: 120.0 mg/kg/injection, schedule: Q01DX Z (oral), vehicle: carboxymethylcellulose (CMC)",109 % of control
same,T/C,"dose: 240.0 mg/kg/injection, schedule: Q01DX Z (oral), vehicle: carboxymethylcellulose (CMC)",107 % of control
same,T/C,"dose: 480.0 mg/kg/injection, schedule: Q01DX Z (oral), vehicle: carboxymethylcellulose (CMC)",103 % of control
same,T/C,"dose: 960.0 mg/kg/injection, schedule: Q01DX Z (oral), vehicle: carboxymethylcellulose (CMC)",114 % of control
CCOC(=O)C1C(=O)NC(C(=O)OCC)(C(=O)OCC)C1C(C)C (centres undefined),T/C,"dose: 50.0 mg/kg/injection, schedule: Q04DX003 (ip), vehicle: Klucel (hydroxypropylcellulose) (HPC)",96 % of control
same,T/C,"dose: 100.0 mg/kg/injection, schedule: Q04DX003 (ip), vehicle: Klucel (hydroxypropylcellulose) (HPC)",100 % of control
same,T/C,"dose: 200.0 mg/kg/injection, schedule: Q04DX003 (ip), vehicle: Klucel (hydroxypropylcellulose) (HPC)",96 % of control
Cn1c(=O)[nH]c(=O)c2c1[nH]c(=O)c(=O)n2C,T/C,[1],101 % of control
same,T/C,[2],98 % of control
same,T/C,[3],95 % of control
same,T/C,[4],106 % of control
C=CCNC(=O)CS(=O)(=O)NCC=C,T/C,"dose: 100.0 mg/kg/injection, schedule: Q04DX003 (ip), vehicle: carboxymethylcellulose (CMC)",95 % of control
same,T/C,"dose: 200.0 mg/kg/injection, schedule: Q04DX003 (ip), vehicle: carboxymethylcellulose (CMC)",96 % of control
same,T/C,"dose: 400.0 mg/kg/injection, schedule: Q04DX003 (ip), vehicle: carboxymethylcellulose (CMC)",117 % of control
NC(CCC(=O)NC(CSC(c1ccccc1)(c1ccccc1)c1ccc(F)cc1)C(=O)NCC(=O)O)C(=O)O (centres undefined),T/C,"dose: 25.0 mg/kg/injection, schedule: Q01DX009 (ip), vehicle: saline",124 % of control
same,T/C,"dose: 50.0 mg/kg/injection, schedule: Q01DX009 (ip), vehicle: other",116 % of control
same,T/C,"dose: 50.0 mg/kg/injection, schedule: Q01DX009 (ip), vehicle: saline",118 % of control
same,T/C,[10],152 % of control
c1ccc2c(c1)Sc1ccccc1N2CCCN1CCCC1,T/C,"dose: 6.25 mg/kg/injection, schedule: Q04DX003 (ip), vehicle: saline",108 % of control
same,T/C,"dose: 12.5 mg/kg/injection, schedule: Q04DX003 (ip), vehicle: saline",105 % of control
same,T/C,"dose: 25.0 mg/kg/injection, schedule: Q04DX003 (ip), vehicle: saline",116 % of control
same,T/C,[11],108 % of control and 123 % of control
same,T/C,"dose: 50.0 mg/kg/injection, schedule: Q04DX003 (ip), vehicle: saline",106 % of control
same,T/C,[12],97 % of control and 103 % of control
Nc1cc2c(cc1I)-c1ccccc1C2=O,T/C,[2],94 % of control
same,T/C,[3],89 % of control
same,T/C,[4],97 % of control
CCOC(=O)C1C2CCCC(=O)C21 (centres undefined),T/C,"dose: 100.0 mg/kg/injection, schedule: Q04DX002 (ip), vehicle: Klucel (hydroxypropylcellulose) (HPC)",96 % of control
same,T/C,"dose: 200.0 mg/kg/injection, schedule: Q04DX002 (ip), vehicle: Klucel (hydroxypropylcellulose) (HPC)",104 % of control
same,T/C,"dose: 400.0 mg/kg/injection, schedule: Q04DX002 (ip), vehicle: Klucel (hydroxypropylcellulose) (HPC)",100 % of control
CCNC(=O)NCC,T/C,[11],109 % of control
same,T/C,[12],101 % of control
same,T/C,"dose: 200.0 mg/kg/injection, schedule: Q01DX001 (ip), vehicle: saline",103 % of control
same,T/C,"dose: 400.0 mg/kg/injection, schedule: Q01DX001 (ip), vehicle: saline",97 % of control
Oc1ccccc1C1CCCCC1,T/C,"dose: 12.5 mg/kg/injection, schedule: Q01DX009 (ip), vehicle: gum acacia",102 % of control
same,T/C,"dose: 25.0 mg/kg/injection, schedule: Q01DX009 (ip), vehicle: gum acacia",100 % of control
same,T/C,"dose: 50.0 mg/kg/injection, schedule: Q01DX009 (ip), vehicle: gum acacia",98 % of control
CC(C)CC(NC(=O)C(CSCc1ccccc1)NC(=O)OCc1ccccc1)C(=O)OCc1ccccc1 (centres undefined) (Cbz-Cys(Bn)-Leu-OBn; configuration not given here),T/C,"dose: 100.0 mg/kg/injection, schedule: Q04DX003 (ip), vehicle: gum acacia",93 % of control
same,T/C,"dose: 200.0 mg/kg/injection, schedule: Q04DX003 (ip), vehicle: gum acacia",93 % of control
same,T/C,"dose: 400.0 mg/kg/injection, schedule: Q04DX003 (ip), vehicle: gum acacia",91 % of control
O=C(NC1CCCCC1)O/N=C/c1ccccn1,T/C,"dose: 100.0 mg/kg/injection, schedule: Q04DX003 (ip), vehicle: other",94 % of control
same,T/C,"dose: 200.0 mg/kg/injection, schedule: Q04DX003 (ip), vehicle: other",109 % of control
same,T/C,"dose: 400.0 mg/kg/injection, schedule: Q04DX003 (ip), vehicle: other",94 % of control
Nc1ncc[nH]1,T/C,[13],107 % of control
same,T/C,[5],90 % of control
same,T/C,[10],114 % of control
same,T/C,[6],93 % of control
same,T/C,[14],122 % of control
same,T/C,[7],90 % of control
COc1ccc(Cl)cc1NC(=O)Nc1cccc(F)c1,T/C,"dose: 100.0 mg/kg/injection, schedule: Q01DX009 (ip), vehicle: Klucel (hydroxypropylcellulose) (HPC)",97 % of control
same,T/C,"dose: 200.0 mg/kg/injection, schedule: Q01DX009 (ip), vehicle: Klucel (hydroxypropylcellulose) (HPC)",97 % of control
same,T/C,"dose: 400.0 mg/kg/injection, schedule: Q01DX009 (ip), vehicle: Klucel (hydroxypropylcellulose) (HPC)",97 % of control
Nc1ccc(CCCCOc2ccccc2)cc1,T/C,"dose: 25.0 mg/kg/injection, schedule: Q01DX001 (ip), vehicle: saline with Tween-80",104 % of control
same,T/C,"dose: 50.0 mg/kg/injection, schedule: Q01DX001 (ip), vehicle: saline with Tween-80",95 % of control
same,T/C,"dose: 100.0 mg/kg/injection, schedule: Q01DX001 (ip), vehicle: saline with Tween-80",98 % of control and 106 % of control
Oc1cc(O)cc(O)c1,T/C,[13],96 % of control
same,T/C,[5],115 % of control
same,T/C,[10],100 % of control
same,T/C,[6],104 % of control
same,T/C,[14],100 % of control
same,T/C,[7],100 % of control
COc1ccc(CN2CCCN(Cc3ccc(OC)cc3OC)C2c2ccccc2OC)c(OC)c1,T/C,[1],101 % of control
same,T/C,[2],93 % of control
same,T/C,[3],93 % of control
same,T/C,[4],101 % of control
